According to patent US10961238B2, “Modulators of hedgehog (Hh) signaling pathway” (E-THERAPEUTICS PLC, priority 2016, dated 2021):
Read-outs that look alike come from different tables or passages of the source.

Columns and labels:
C3H10T1/2 cells = test: C3H assay: differentiation of C3H10T1/2 cells by mSHH, measurement of alkaline phosphatase; format: cell-based, mouse; conditions: C3H10T1/2 cells stimulated with mSHH for 72 hours, alkaline phosphatase activity, read-out: IC50 Ranges
[1] = tested on: SMO L416F mutant cell line; test: C3H10T1/2 cell differentiation assay in SMO L416F mutant cell line versus wild type; format: cell-based, mouse; conditions: for Fold reduction in potency in SMO L416F mutant cell line: SMO L416F mutant cell line compared to the wild type, C3H10T1/2 cell differentiation assay
Text: FIG. 1 is a graph of the percent inhibition of C3H10T1/2 cell differentiation of vismodegib compared to compound of the invention (compound number 174), in wild type versus SMO L416F mutant cell line.
Loss of Potency in C3H10T1/2 Cell Differentiation Assay Associated with Presence of SMO L416F Mutation.
Table 3 below details the number of fold reduction in potency of a range of compounds of the invention when applied to the SMO L416F mutant cell line compared to the wild type. SMO mutation has been described in the literature (Pricl, Sabrina, et al.) as a key mutation causative of vismodegib resistance in the clinic by interfering with drug binding.

SMO = molecular target: T1, SMO (Homo sapiens, UniProt Q99835); test: Smoothened (SMO) binding fluorescence polarisation assay (BODIPY-cyclopamine competition); conditions: SMO binding FP assay versus C3H10T1/2 cellular assay
T1 construct: expressed in transfected cells; host or cells: HEK293
Protocol: Standard Protocol for Smoothened (SMO) Binding Fluorescence Polarisation Assay.
The assay measures the ability of the test compounds to compete with a fluorescently-labelled version of the known ligand, cyclopamine, for binding to SMO. The fluorescent tag used is BODIPY (boron dipyrromethene).
An aliquot of a membrane preparation from a SMO-over-expressing HEK293 cell line is diluted to protein concentration of 0.117 mg/ml in assay buffer (25 mM HEPES, 2 mM EDTA, 0.05% γ-globulin, 0.01% pluronic acid pH7.4, plus protease Inhibitor cocktail). 8.5 μl of the membrane suspension is added to each well of a black, low volume 384 well microtitre plate.
Test compounds are added in a seven point dilution range to the wells containing the membrane preparation. The final DMSO solvent concentration in the wells is maintained at 0.3%. 6.5 μl of a 6.9 nM BODIPY-cyclopamine solution is added to each of the wells (final assay concentration 3 nM).
The plate is sealed and stored in the dark at room temperature for 24 hours prior to measurement of the fluorescence polarisation signal on a Perkin Elmer Envision multi-label reader.
Table 4 below details the ratio of SMO binding compared to the potency in the C3H10T1/2 cellular assay. The small ratio between SMO binding and potency for vismodegib is considered to be reflective of the fact vismodegib acts mainly through inhibition of the SMO protein. The larger ratios for the compound of the invention are considered to be reflective of alternate actions outside of direct SMO inhibition.

T1 sequence (Q99835 28-787): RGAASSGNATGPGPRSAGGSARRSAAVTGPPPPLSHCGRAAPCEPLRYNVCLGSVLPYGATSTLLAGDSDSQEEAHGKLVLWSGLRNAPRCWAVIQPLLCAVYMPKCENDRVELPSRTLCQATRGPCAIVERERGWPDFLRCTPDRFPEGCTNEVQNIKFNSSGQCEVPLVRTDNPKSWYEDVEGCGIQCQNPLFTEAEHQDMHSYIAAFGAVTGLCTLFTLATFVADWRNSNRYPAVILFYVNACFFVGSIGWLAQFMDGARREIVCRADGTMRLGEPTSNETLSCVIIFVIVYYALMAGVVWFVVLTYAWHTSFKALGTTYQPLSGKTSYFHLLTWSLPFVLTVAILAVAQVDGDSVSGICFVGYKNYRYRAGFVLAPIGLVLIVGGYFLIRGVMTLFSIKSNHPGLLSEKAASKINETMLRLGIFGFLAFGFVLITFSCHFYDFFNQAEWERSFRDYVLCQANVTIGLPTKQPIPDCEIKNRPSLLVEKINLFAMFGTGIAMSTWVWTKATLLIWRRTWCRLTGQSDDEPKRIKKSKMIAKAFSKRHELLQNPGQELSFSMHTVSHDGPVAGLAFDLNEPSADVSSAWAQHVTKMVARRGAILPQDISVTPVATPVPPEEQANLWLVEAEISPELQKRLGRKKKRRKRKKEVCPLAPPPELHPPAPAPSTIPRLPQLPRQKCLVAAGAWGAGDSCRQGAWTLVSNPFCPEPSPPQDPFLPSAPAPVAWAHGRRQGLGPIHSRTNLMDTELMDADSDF

| SMILES | IC50 (C3H10T1/2 cells; Mus musculus, C3H 10T1/2) [µM] | IC50 (C3H10T1/2 cells) [µM] | Ratio of potency in SMO binding assay to potency in C3H10T1/2 cellular assay (SMO) | Fold reduction in potency in SMO L416F mutant cell line [1] | percent inhibition of C3H10T1/2 cell differentiation ([1]; FIG. 1, compared to vismodegib, wild type versus SMO L416F mutant cell line) |
| --- | --- | --- | --- | --- | --- |
| O=C(OCc1ccccc1C(F)(F)F)N1CC(S(=O)(=O)N2CCC(c3c[nH]c4ncccc34)CC2)C1 [Compound 216, [2-(trifluoromethyl)phenyl]methyl 3-[4-(1H-pyrrolo[2,3-b]pyridin-3-yl)piperidin-1-yl]sulfonylaze-tidine-1-carboxylate] | < 0.01 | – | – | 47 | – |
| O=C(NCCc1cccs1)N1CC(S(=O)(=O)N2CCC(c3c[nH]c4ncccc34)CC2)C1 [Compound 84, 3-[4-(1H-pyrrolo[2,3-b]pyridin-3-yl)piperidin-1-yl]sulfonyl-N-(2-thiophen-2-ylethyl)azetidine-1-carboxamide] | 0.01 to 0.1 | – | – | 50 | – |
| CC(C)C(CO)NC(=O)N1CC(S(=O)(=O)N2CCC(c3c[nH]c4ncccc34)CC2)C1 (racemic) [Compound 26, N-[1-(Hydroxymethyl)-2-methyl-propyl]-3-[[4-(1H-pyrrolo[2,3-b]pyridin-3-yl)-1-piperidyl]sulfonyl]azetidine-1-carboxamide] | 0.01 to 0.1 | – | – | 67 | – |
| CC(C)(C)NC(=S)N1CC(S(=O)(=O)N2CCC(c3c[nH]c4ncccc34)CC2)C1 [Compound 174, N-tert-butyl-3-[4-(1H-pyrrolo[2,3-b]pyridin-3-yl)piperidin-1-yl]sulfonylaze-tidine-1-carbothioamide] | 0.01 to 0.1 | – | – | – | a lower concentration of compound 174 is required to achieve the same percent inhibition of differentiation |
| Cc1ccnc2[nH]cc(C3CCN(S(=O)(=O)C4CN(C(=O)OC(C)(C)C)C4)CC3)c12 [Compound 223, tert-butyl 3-[4-(4-methyl-1H-pyrrolo[2,3-b]pyridin-3-yl)piperidin-1-yl]sulfonylaze-tidine-1-carboxylate] | 0.01 to 0.1 | – | 21 | 26 | – |
| CC(C)(C)OC(=O)N1CCCC(S(=O)(=O)N2CCC(c3c[nH]c4ncccc34)CC2)C1 (centres unmarked) [Compound 248, tert-butyl 3-[4-(1H-pyrrolo[2,3-b]pyridin-3-yl)piperidin-1-yl]sulfonylpiper-idine-1-carboxylate] | 0.1 to 1 | – | – | 10 | – |
| COc1ccccc1OC(=O)N1CC(S(=O)(=O)N2CCC(c3c[nH]c4ncccc34)CC2)C1 [Compound 217, (2-methoxyphenyl) 3-[4-(1H-pyrrolo[2,3-b]pyridin-3-yl)piperidin-1-yl]sulfonylaze-tidine-1-carboxylate] | < 0.01 | – | – | 34 | – |
| Cc1noc(C)c1NC(=O)N1CC(S(=O)(=O)N2CCC(c3c[nH]c4ncccc34)CC2)C1 [Compound 120, N-(3,5-dimethyl-1,2-oxazol-4-yl)-3-[4-(1H-pyrrolo[2,3-b]pyridin-3-yl)piperidin-1-yl]sulfonylaze-tidine-1-carboxamide] | 0.01 to 0.1 | – | – | 38 | – |
| CC(C)(C)NC(=O)N1CC(S(=O)(=O)N2CCC(c3ccc(Cl)cc3)CC2)C1 [Compound 319, N-tert-butyl-3-[4-(4-chlorophenyl)piperidin-1-yl]sulfonylaze-tidine-1-carboxamide] | 0.01 to 0.1 | – | 2.9 | – | – |
| O=C(N1CCOCC1)N1CC(S(=O)(=O)N2CCC(c3c[nH]c4ncccc34)CC2)C1 [Compound 88, morpholin-4-yl-[3-[4-(1H-pyrrolo[2,3-b]pyridin-3-yl)piperidin-1-yl]sulfonylaze-tidin-1-yl]methanone] | 0.1 to 1 | – | – | 27 | – |
| O=C(CC(O)(C(F)(F)F)C(F)(F)F)N1CC(S(=O)(=O)N2CCC(c3coc4cccnc34)CC2)C1 [Compound 334, 4,4,4-trifluoro-1-[3-(4-furo[3,2-b]pyridin-3-ylpiperidin-1-yl)sulfonylaze-tidin-1-yl]-3-hydroxy-3-(trifluoromethyl) butan-1-one] | 0.01 to 0.1 | – | 2.6 | – | – |
| Cc1ccc2c(C3CCN(S(=O)(=O)C4CN(C(=O)OC(C)(C)C)C4)CC3)c[nH]c2n1 [Compound 347, tert-butyl 3-[4-(6-methyl-1H-pyrrolo [2,3-b]pyridin-3-yl)piperidin-1-yl]sulfonylaze-tidine-1-carboxylate] | 0.01 to 0.1 | – | 3.8 | – | – |

The next lines start with results.

| IC50 (C3H10T1/2 cells; Mus musculus, C3H 10T1/2) [µM] | IC50 (C3H10T1/2 cells) [µM] | Ratio of potency in SMO binding assay to potency in C3H10T1/2 cellular assay (SMO) | SMILES | Fold reduction in potency in SMO L416F mutant cell line [1] | percent inhibition of C3H10T1/2 cell differentiation ([1]; FIG. 1, compared to vismodegib, wild type versus SMO L416F mutant cell line) |
| --- | --- | --- | --- | --- | --- |
| – | < 0.01 | – | O=C(NC12CC3CC(CC(C3)C1)C2)N1CC(S(=O)(=O)N2CCC(c3c[nH]c4ncccc34)CC2)C1 [Compound 171, N-(1-adamantyl)-3-[4-(1H-pyrrolo [2,3-b]pyridin-3-yl)piperidin-1-yl]sulfonylaze-tidine-1-carboxamide] | 38 | – |
| < 0.01 | – | – | CC(C)(C)CC(C)(C)NC(=O)N1CC(S(=O)(=O)N2CCC(c3c[nH]c4ncccc34)CC2)C1 [Compound 175, 3-[4-(1H-pyrrolo[2,3-b]pyridin-3-yl)piperidin-1-yl]sulfonyl-N-(2,4,4-trimethylpentan-2-yl)azetidine-1-carboxamide] | 40 | – |
| 0.01 to 0.1 | – | – | CC(C)[C@@H](CO)NC(=O)N1CC(S(=O)(=O)N2CCC(c3c[nH]c4ncccc34)CC2)C1 [Compound 250, N-[(2S)-1-hydroxy-3-methylbutan-2-yl]-3-[4-(1H-pyrrolo[2,3-b]pyridin-3-yl)piperidin-1-yl]sulfonylaze-tidine-1-carboxamide] | 29 | – |
| 0.01 to 0.1 | – | – | CC(C)(C)OC(=O)N1CC(S(=O)(=O)N2CCC(c3csc4ncccc34)CC2)C1 [Compound 177, tert-butyl 3-(4-thieno [2,3-b]pyridin-3-ylpiperidin-1-yl)sulfonylaze-tidine-1-carboxylate] | 37 | – |
| 0.01 to 0.1 | – | – | O=C(OCC1CCCCC1)N1CC(S(=O)(=O)N2CCC(c3c[nH]c4ncccc34)CC2)C1 [Compound 168, cyclohexylmethyl 3-[4-(1H-pyrrolo[2,3-b]pyridin-3-yl)piperidin-1-yl]sulfonylaze-tidine-1-carboxylate] | 33 | – |
| 0.01 to 0.1 | – | – | O=C(OC1CCCCC1)N1CC(S(=O)(=O)N2CCC(c3c[nH]c4ncccc34)CC2)C1 [Compound 75, cyclohexyl 3-[4-(1H-pyrrolo[2,3-b]pyridin-3-yl)piperidin-1-yl]sulfonylaze-tidine-1-carboxylate] | 60 | – |
| 0.01 to 0.1 | – | 21 | CC1(C)COCC(C)(C)N1C(=O)N1CC(S(=O)(=O)N2CCC(c3cnc4occc4c3)CC2)C1 [Compound 34, [3-(4-furo[2,3-b]pyridin-5-ylpiperidin-1-yl)sulfonylaze-tidin-1-yl]-(3,3,5,5-tetramethylmor-pholin-4-yl)methanone] | – | – |
| 0.01 to 0.1 | – | 2.7 | CC1(C)COCN1C(=O)N1CC(S(=O)(=O)N2CCC(c3c[nH]c4ncccc34)CC2)C1 [Compound 256, (4,4-dimethyl-1,3-oxazolidin-3-yl)-[3-[4-(1H-pyrrolo[2,3-b]pyridin-3-yl)piperidin-1-yl]sulfonylaze-tidin-1-yl]methanone] | – | – |
| 0.1 to 1 | – | 3.6 | CC(C)(O)CC(=O)N1CC(S(=O)(=O)N2CCC(c3c[nH]c4ncccc34)CC2)C1 [Compound 397, 3-hydroxy-3-methyl-1-[3-[4-(1H-pyrrolo[2,3-b]pyridin-3-yl)piperidin-1-yl]sulfonylaze-tidin-1-yl]butan-1-one] | – | – |
| < 0.01 | – | – | CC(C)[C@H]1CC[C@H](C)C[C@@H]1OC(=O)N1CC(S(=O)(=O)N2CCC(c3c[nH]c4ncccc34)CC2)C1 [Compound 166, [(1S,2R,5S)-5-methyl-2-propan-2-ylcyclohexyl] 3-[4-(1H-pyrrolo[2,3-b]pyridin-3-yl)piperidin-1-yl]sulfonylaze-tidine-1-carboxylate] | 51 | – |
| < 0.01 | – | – | Cc1noc(C)c1OC(=O)N1CC(S(=O)(=O)N2CCC(c3c[nH]c4ncccc34)CC2)C1 [Compound 160, (3,5-dimethyl-1,2-oxazol-4-yl) 3-[4-(1H-pyrrolo[2,3-b]pyridin-3-yl)piperidin-1-yl]sulfonylaze-tidine-1-carboxylate] | 29 | – |
